Read-outs that look alike come from different tables or passages of the source.
Key:
[1] = system: HEK-uPAR xenograft-bearing mice; settings: mouse, in vivo
Description: (§1) HEK-uPAR xenografted mice were injected with the respective radiopeptide (5 MBq, 0.5 nmol/mouse, 100 µL 0.9% NaCl containing 0.05% BSA) and sacrificed at 4 h and 24 h after injection. […] The tissues and organs of interest were collected, weighed and counted for activity using a γ-counter (Wallac Wizard 1480, PerkinElmer). […] The results were presented as the average ± SD of n = 3 mice. The time-activity curves were determined for the uptake of [^177Lu]Lu-DOTA-AE105 and [^177Lu]Lu-uPAR-11 in the blood, HEK-uPAR xenografts, kidneys and liver based on non-decay corrected biodistribution data. For the blood, the initial uptake (t = 0) was set as 50% IA/g assuming a blood volume of 2 mL for CD1 nude mice. The initial uptake value (t = 0) for all other organs and tissues was set as 0% IA/g. […] The area under the curves over 48 h after injection (AUC0h→48 h) was calculated using GraphPad Prism software (version 10.1.1). Statistical analyses were performed by applying a one-way ANOVA test with a Dunnet’s multiple comparison post‐test to compare the data of the new radiopeptides with those of [^177Lu]Lu-DOTA-AE105 and a Tukey’s multiple comparisons post‐test to compare the novel radiopeptides among them. A p-value of < 0.05 was considered a statistically significant difference using GraphPad Prism software (version 10.1.1).

[2] = in vivo; settings: CD1 nude, mouse, 0.5 nmol/mouse, total radioactivity
Description: as §1

[3] = physchem; assay type: physicochemical; settings: pH 7.4
Description: The ^177Lu-labeled peptides (50 MBq/nmol) were incubated in mouse or human blood plasma (10 MBq/200 µL) over an incubation period of 24 h at 37 °C. Aliquots and control samples of the radiopeptides diluted in saline were analyzed after 1 h, 4 h and 24 h using thin layer chromatography (TLC) as previously reported (Supplementary Material). The distribution coefficients (logD values) of the ^177Lu-labeled peptides (50 MBq/nmol) were determined using a shake-flask method according to a previously published procedure (Supplementary Material). Methods: The radiopeptides (50 MBq/nmol) were diluted in phosphate buffered saline (PBS) pH 7.4 to obtain an activity concentration of 10 MBq/500 µL. A sample of this radiopeptide solution (~0.5 MBq, 25 µL, 0.01 nmol) was added to a mixture of PBS pH 7.4 (1475 µL) and n-octanol (1500 µL). The vials were vortexed vigorously for 1 min followed by centrifugation (560 rcf, 25°C, 6 min) for phase separation. Aliquots were taken from each phase and measured in a γ-counter (Wallac Wizard 1480, PerkinElmer). The distribution coefficients were calculated as the logarithmic value of the ratio of counts per minute (cpm) measured in the n-octanol phase relative to the cpm measured in the PBS phase. The results were listed as average ± SD of the data obtained from 3 independent experiments, each performed with five replicates.

[4] = assay type: in vitro ADME; settings: 1 µM
Description: The ^177Lu-labeled peptides (50 MBq/nmol) were incubated in mouse or human blood plasma (10 MBq/200 µL) over an incubation period of 24 h at 37 °C. Aliquots and control samples of the radiopeptides diluted in saline were analyzed after 1 h, 4 h and 24 h using thin layer chromatography (TLC) as previously reported (Supplementary Material). The distribution coefficients (logD values) of the ^177Lu-labeled peptides (50 MBq/nmol) were determined using a shake-flask method according to a previously published procedure (Supplementary Material).
Methods: A sample of each radiopeptide (50 MBq/nmol) was added to mouse blood plasma (Lot: 32321, Rockland Immunochemicals Inc., USA) or to human blood plasma (Stiftung Blutspende SRK Aargau-Solothurn, Switzerland) to obtain an activity concentration of 10 MBq/200 µL. The test samples were incubated at 37 °C for up to 24 h. Control samples referred to the radiopeptides which were instead diluted in saline at an activity concentration of 10 MBq/200 µL. Aliquots of each sample (2 µL, ~100 kBq) were taken after 1 h, 4 h and 24 h and investigated by means of thin layer chromatography (TLC). The employed method involved reversed-phase TLC plates (MERCK Analytical Chromatography, TLC Silica gel 60 RP-18 F254s) as stationary phase and ACN/citrate buffer (3:7; v/v; pH 5.5) as mobile phase. After the eluent reached the front line, the TLC plates were dried and exposed to a phosphor screen (Super resolution screen PSR10450013, PerkinElmer) for 1 min. The respective screen was developed using a storage phosphor system (Cyclone Plus, PerkinElmer) and analyzed using the OptiQuant Software (version 5.0, Bright Instrument Co Ltd., PerkinElmer).

Xgrft-to-liver ratio [1]: 7.4 ± 1.0 | tissue uptake at 4 h ([2]; Blood uptake): 4.5 ± 0.2 %ID/g | tissue uptake at 24 h ([2]; Blood uptake): 0.06 ± 0.01 %ID/g | tissue uptake at 4 h ([2]; Bone uptake): 0.66 ± 0.09 %ID/g | tissue uptake at 24 h ([2]; Bone uptake): 0.19 ± 0.03 %ID/g | tissue uptake at 4 h ([2]; Brain uptake): 0.1 ± 0.01 %ID/g | tissue uptake at 24 h ([2]; Brain uptake): < 0.03 %ID/g | tissue uptake at 4 h ([2]; HEK-uPAR xenograft uptake): 9 ± 0.5 %ID/g | tissue uptake at 24 h ([2]; HEK-uPAR xenograft uptake): 3.4 ± 0.3 %ID/g | tissue uptake at 4 h ([2]; Heart uptake): 1.7 ± 0.1 %ID/g | tissue uptake at 24 h ([2]; Heart uptake): 0.15 ± 0.01 %ID/g | tissue uptake at 4 h ([2]; Intestines uptake): 0.81 ± 0.04 %ID/g | tissue uptake at 24 h ([2]; Intestines uptake): 0.21 ± 0.03 %ID/g | tissue uptake at 4 h ([2]; Kidneys uptake): 4 ± 0.3 %ID/g | tissue uptake at 24 h ([2]; Kidneys uptake): 2 ± 0.3 %ID/g | tissue uptake at 4 h ([2]; Liver uptake): 2 ± 0.2 %ID/g | tissue uptake at 24 h ([2]; Liver uptake): 0.47 ± 0.05 %ID/g | tissue uptake at 4 h ([2]; Lung uptake): 3 ± 0.6 %ID/g | tissue uptake at 24 h ([2]; Lung uptake): 0.3 ± 0.02 %ID/g | tissue uptake at 4 h ([2]; Muscle uptake): 0.51 ± 0.02 %ID/g | tissue uptake at 24 h ([2]; Muscle uptake): 0.05 ± 0.01 %ID/g | tissue uptake at 4 h ([2]; Pancreas uptake): 0.68 ± 0.03 %ID/g | tissue uptake at 24 h ([2]; Pancreas uptake): 0.12 ± 0.01 %ID/g | tissue uptake at 4 h ([2]; Salivary glands uptake): 1.1 ± 0.1 %ID/g | tissue uptake at 24 h ([2]; Salivary glands uptake): 0.26 ± 0.03 %ID/g | tissue uptake at 4 h ([2]; Spleen uptake): 0.99 ± 0.08 %ID/g | tissue uptake at 24 h ([2]; Spleen uptake): 0.54 ± 0.11 %ID/g | tissue uptake at 4 h ([2]; Stomach uptake): 0.69 ± 0.13 %ID/g | tissue uptake at 24 h ([2]; Stomach uptake): 0.16 ± 0.03 %ID/g | logD [3]: -0.13 ± 0.08 | Human blood plasma stability, intact radiopeptide ([4]; 1 h): 100 ± 1% | Mouse blood plasma stability, intact radiopeptide ([4]; 1 h): 100 ± 1% | Human blood plasma stability, intact radiopeptide ([4]; 4 h): 100 ± 1% | Mouse blood plasma stability, intact radiopeptide ([4]; 4 h): 97 ± 4% | Human blood plasma stability, intact radiopeptide ([4]; 24 h): 97 ± 2% | Mouse blood plasma stability, intact radiopeptide ([4]; 24 h): 99 ± 2%
SMILES: Cc1ccc(CCCC(=O)NCCOCCOCCOCCOCCC(=O)NC[C@H](NC(=O)CN2CCN(CC(=O)O)CCN(CC(=O)O)CCN(CC(=O)O)CC2)C(=O)N[C@@H](CC(=O)O)C(=O)N[C@@H](CC2CCCCC2)C(=O)N[C@@H](Cc2ccccc2)C(=O)N[C@H](CO)C(=O)N[C@H](CCCNC(=N)N)C(=O)N[C@@H](Cc2ccc(O)cc2)C(=O)N[C@@H](CC(C)C)C(=O)N[C@@H](Cc2c[nH]c3ccccc23)C(=O)N[C@@H](CO)C(N)=O)cc1 [[^177Lu]Lu-uPAR-14, metal not drawn]

From article PMC12920294, “Optimizing uPAR-targeting radiopeptides for improved tissue distribution: progress towards radionuclide therapy” (European Journal of Nuclear Medicine and Molecular Imaging, 2025)
